Where a SMILES comes first, the peptide text is derived from it. [ ]: non-standard residue; d: D form. ξ: configuration not given here. NMeF = CN[C@@H](Cc1ccccc1)C(=O)O; Hica(2S) = CC(C)C[C@H](O)C(=O)O; ξLac(3-iPr) = CC(C)CC(O)C(=O)O
Columns and labels:
Assay type in all cases: functional, cell-based
HepG2 = test: Antiproliferative activity against human HepG2 cells assessed as reduction in cell viability after 48 hr by CCK-8 assay; conditions: HepG2, 48 h
[1] = Antiproliferative activity against rat MRMT-1 cells assessed as reduction in cell viability after 48 hr by CCK-8 assay; conditions: MRMT-1, 48 h
Huh-7 = test: Antiproliferative activity against human Huh-7 cells assessed as reduction in cell viability after 48 hr by CCK-8 assay; conditions: Huh-7, 48 h

**Q.** Which IC50 (HepG2) does the source give for CCCCC/C=C\CCC(=O)OC1=C(c2ccccc2)CCC1=O here?
**A.** The IC50 was over 50 µM.

**Q.** And the IC50 [1]?
**A.** The IC50 was over 50 µM.

**Q.** And the IC50 (Huh-7)?
**A.** Its IC50 is over 50 µM.

**Q.** With CCC(C)C1NC(=O)C(CC(C)C)NC(=O)C(C(C)CC)NC(=O)C(CC(C)C)NC(=O)C(CC(C)C)NC1=O (stereo unspecified) (cyclo(ILILL); configuration not given here) as the molecule, how does the IC50 (HepG2) read?
**A.** The IC50 was 14.1 µM.

**Q.** What about the IC50 [1] of the same molecule?
**A.** Its IC50 is over 50 µM.

**Q.** And the IC50 (Huh-7)?
**A.** The IC50 was over 50 µM.

**Q.** With CC(C)CC1OC(=O)[C@H](Cc2ccccc2)NC(=O)[C@H](Cc2ccccc2)NC(=O)[C@H](Cc2ccccc2)NC(=O)[C@H](Cc2ccccc2)NC(=O)[C@H](Cc2c[nH]c3ccccc23)NC1=O (stereo partly specified) (cyclo(FFFF[ξLac(3-iPr)]W)) as the molecule, how does the IC50 (HepG2) read?
**A.** The IC50 was 15.4 µM.

**Q.** And the IC50 [1]?
**A.** The IC50 was 17.3 µM.

**Q.** And the IC50 (Huh-7)?
**A.** The IC50 was 30.3 µM.

**Q.** What does the source list for CC[C@H](C)[C@H]1OC(=O)[C@H](C(C)C)N(C)C(=O)[C@@H](C(C)C)OC(=O)[C@H](C(C)C)N(C)C(=O)[C@@H]([C@@H](C)CC)OC(=O)[C@H](C(C)C)N(C)C1=O?
**A.** IC50 (HepG2): 2.8 µM; IC50 [1]: 2.7 µM; IC50 (Huh-7): 6.2 µM

**Q.** Which results are given for CN1C(=O)[C@@](C)(O)C(=O)[C@@H]1Cc1ccc2c(c1)CC(C(C)(C)O)O2 (stereo partly specified) [RIGIDIUSCULAMIDE C]?
**A.** IC50 (HepG2): > 50 µM; IC50 [1]: > 50 µM; IC50 (Huh-7): > 50 µM

**Q.** Which results are given for CC(C)[C@H]1OC(=O)[C@H](Cc2ccccc2)N(C)C(=O)[C@@H](C(C)C)OC(=O)[C@H](Cc2ccccc2)N(C)C(=O)[C@@H](C(C)C)OC(=O)[C@H](Cc2ccccc2)N(C)C1=O?
**A.** IC50 (HepG2): 1 µM; IC50 [1]: 8.7 µM; IC50 (Huh-7): 4.3 µM

**Q.** Which results are given for CCC(C)[C@H]1OC(=O)[C@H](C(C)C)N(C)C(=O)[C@@H](C(C)CC)OC(=O)[C@H](CC(C)C)N(C)C(=O)[C@@H](C(C)CC)OC(=O)[C@H](C(C)C)N(C)C1=O (stereo partly specified)?
**A.** IC50 (HepG2): 1.4 µM; IC50 [1]: 2.8 µM; IC50 (Huh-7): 3.3 µM

**Q.** Which IC50 (HepG2) does the source give for CC(C)C[C@@H]1OC(=O)[C@H](Cc2ccccc2)N(C)C(=O)[C@@H]2CCCN2C(=O)[C@H](C(C)C)NC(=O)[C@H](Cc2ccccc2)NC(=O)[C@@H]2CCCN2C(=O)[C@@H]2CCCN2C1=O (cyclo(FVP[NMeF][Hica(2S)]PP)) here?
**A.** Its IC50 is 20.1 µM.

**Q.** And the IC50 [1]?
**A.** The IC50 was over 50 µM.

**Q.** What about the IC50 (Huh-7) of the same molecule?
**A.** The IC50 was over 50 µM.

**Q.** For CCCCCCCC(=O)O[C@@H]1[C@](N)(C(=O)O)CC[C@]1(O)c1ccccc1, which IC50 (HepG2) is on record?
**A.** The IC50 was over 50 µM.

**Q.** And the IC50 [1]?
**A.** The IC50 was over 50 µM.

**Q.** And the IC50 (Huh-7)?
**A.** The IC50 was over 50 µM.

**Q.** Which results are given for CCCCCCCC(=O)OC1=C(c2ccccc2)CCC1=O?
**A.** IC50 (HepG2): > 50 µM; IC50 [1]: > 50 µM; IC50 (Huh-7): > 50 µM

**Q.** Which results are given for CC(C)CC1OC(=O)[C@H](Cc2ccccc2)NC(=O)[C@H](Cc2ccccc2)NC(=O)[C@H](Cc2ccccc2)NC(=O)[C@H](Cc2ccc(O)cc2)NC1=O (stereo partly specified) (cyclo(FFF[ξLac(3-iPr)]Y))?
**A.** IC50 (HepG2): 10.7 µM; IC50 [1]: > 50 µM; IC50 (Huh-7): 46.2 µM

**Q.** Which IC50 (HepG2) does the source give for CC(=O)CC(O)Cc1cc2cc(O)cc(O)c2c(=O)o1 (stereo unspecified) here?
**A.** The IC50 was over 50 µM.

**Q.** What about the IC50 [1] of the same molecule?
**A.** The IC50 was over 50 µM.

**Q.** And the IC50 (Huh-7)?
**A.** The IC50 was over 50 µM.

**Q.** With CCC(C)[C@H]1OC(=O)[C@H](C(C)C)N(C)C(=O)[C@@H](C(C)CC)OC(=O)[C@H](C(C)C)N(C)C(=O)[C@@H](C(C)CC)OC(=O)[C@H](C(C)C)N(C)C1=O (stereo partly specified) as the molecule, how does the IC50 (HepG2) read?
**A.** The IC50 was 3.3 µM.

**Q.** And the IC50 [1]?
**A.** The IC50 was 6.8 µM.

**Q.** And the IC50 (Huh-7)?
**A.** The IC50 was 9.1 µM.

**Q.** Which results are given for O=c1[nH]cc(F)c(=O)[nH]1 [FLUOROURACIL]?
**A.** IC50 (HepG2): 36.1 µM; IC50 [1]: 25.7 µM; IC50 (Huh-7): 30.3 µM

**Q.** With CC(C)(O)[C@H]1Cc2cc(C=O)ccc2O1 as the molecule, how does the IC50 (HepG2) read?
**A.** Its IC50 is over 50 µM.

**Q.** What about the IC50 [1] of the same molecule?
**A.** The IC50 was over 50 µM.

**Q.** And the IC50 (Huh-7)?
**A.** The IC50 was over 50 µM.

**Q.** Which results are given for CCCCC/C=C\CCC(=O)O[C@@H]1[C@](N)(C(=O)O)CC[C@]1(O)c1ccccc1?
**A.** IC50 (HepG2): > 50 µM; IC50 [1]: > 50 µM; IC50 (Huh-7): > 50 µM

**Q.** Which results are given for COC(=O)/C=C/c1c(CC=C(C)C)ncn1C?
**A.** IC50 (HepG2): > 50 µM; IC50 [1]: > 50 µM; IC50 (Huh-7): > 50 µM

— ChEMBL document CHEMBL5126657, “Cytotoxic Cyclodepsipeptides and Cyclopentane Derivatives from a Plant-Associated Fungus Fusarium sp” (J Nat Prod, 2022)
